Results as given in patent US20100237530A1, “COMPRESSED PREPARATION” (Daiichi Sankyo Company, Limited, priority 2006, published 2010).

Experiment: Dissolution Test (Paddle Method), Method 2 of the Japanese Pharmacopoeia 14th Revised Edition
Assay type: physicochemical
Details: dissolution rate of olmesartan medoxomil, paddle 50 revolutions per minute, 900 mL JP-2, absorptiometry, average of two tablets
Experimental: Dissolution properties were measured for the drug products as obtained in the Examples and Comparative Examples by the following method, and the results are shown in the Table.
Testing was carried out in accordance with Method 2 of the Dissolution Test (Paddle Method) described in the 14th Revised Edition of the Japanese Pharmacopoeia, at the paddle revolution speed of 50 revolutions per minute and using 900 mL of Japanese Pharmacopoeia Solution 2 (JP-2) for the test solution. The test solution was sampled at 30 minutes and 60 minutes after the start of testing, and the dissolution rate of olmesartan medoxomil was measured by absorptiometry. [Toyama Sangyo Co., Ltd.: DISSOLUTION TESTER NTR-6000, Shimadzu Corporation: SPECTROPHOTOMETER UV-1600] Tests were carried out for two tablets, and average values are shown.

Dissolution rate (%) After 30 minutes (sampled at 30 minutes): 60.0% | Dissolution rate (%) After 60 minutes (sampled at 60 minutes): 68.4%
Structure (SMILES): CCCc1nc(C(C)(C)O)c(C(=O)OCc2oc(=O)oc2C)n1Cc1ccc(-c2ccccc2-c2nnn[nH]2)cc1 [Comparative Example C-3, Olmesartan medoxomil]
